According to patent EP0684822B1, “CARBOCYCLIC DEOXYGUANOSINE ANALOGS FOR THE TREATMENT OF VIRAL INFECTIONS” (SOUTHERN RESEARCH INSTITUTE, priority 1993, dated 1994):
In brackets after ≈: the same amount, converted by molar mass. Several values for one entry are separate records, joined by “and”; a condition that tells them apart may be missing. Identical values can stand only once.

Columns and labels:
[1] = target: T1, HSV-1 TK (Human herpesvirus 1, UniProt P0DTH5); assay: Competitive inhibition of [3H]-thymidine phosphorylation by partially purified HSV-1 TK; assay type: biochemical
T1 construct: HSV thymidine kinase (HSV TK) was isolated from HELA (BU25) cells infected with the SW148 strain of HSV-1; made in house; host or cells: HeLa (BU25) thymidine-kinase-deficient cells infected with HSV-1 strain S148/SW148
T1 sequence (P0DTH5 whole entry): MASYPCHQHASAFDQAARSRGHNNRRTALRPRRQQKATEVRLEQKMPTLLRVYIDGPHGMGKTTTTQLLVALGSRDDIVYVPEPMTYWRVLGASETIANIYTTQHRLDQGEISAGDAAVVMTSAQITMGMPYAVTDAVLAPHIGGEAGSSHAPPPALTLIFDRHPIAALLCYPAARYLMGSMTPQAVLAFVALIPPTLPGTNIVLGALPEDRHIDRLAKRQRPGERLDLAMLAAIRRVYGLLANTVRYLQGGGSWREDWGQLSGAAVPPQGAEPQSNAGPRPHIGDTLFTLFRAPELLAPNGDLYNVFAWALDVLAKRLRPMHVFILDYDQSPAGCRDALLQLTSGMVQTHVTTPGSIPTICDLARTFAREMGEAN
Protocol: The Ki's were determined from a plot of the slope of each line versus the concentration of the competitor (D-, L, or D,L-2'CdG) and are summarized below: TABLE 2

[2] = tested on: HSV-1 (strain 377, TK+); assay: Antiviral activity against HSV-1; assay type: cell-based; details: for VR / EC50: HSV-1, range of tests; for EC50: Human alphaherpesvirus 1, read-out: Mic50
Protocol: (§1) D-2'-CdG and L-2'-CdG were tested, alongside D,L-2'-CdG, against both HSV-1 (strain 377, TK+; obtained from Dr. Earl Kern, University of Alabama) and HSV-2 (strain MS, TK+; also obtained from Dr. Earl Kern). In these tests (Table 5), Ara-A and acyclovir (ACV) were the positive control drugs. In four tests vs. HSV-1, the antiviral activity (VR) and potency (MIC50) of D-2'-CdG were approximately the same as those of racemic 2-CdG. L-2'-CdG was only modestly active.

[3] = tested on: HSV-2 (strain MS, TK+); assay: Antiviral activity against HSV-2; assay type: cell-based; details: HSV-2; for EC50: Human alphaherpesvirus 2, read-out: Mic50
Protocol: as §1
These compounds were tested against HSV-2(TK^+). The VR of ACV was somewhat higher than the VR values of D-2'-CdG and D,L-2'-CdG, but the values of MIC50 of the two forms of 2'-CdG were lower. In addition, experiments comparing the antiviral activity D-2'-CdG with acyclovir against HSV-1 in human foreskin fibroblasts have shown an even greater potency, in favor of D-2'-CdG.

[4] = tested on: CMV; assay: CMV yield reduction in MRC5 cell monolayer cultures (plaque assay); assay type: cell-based, human CMV; details: for CMV Yield: virus control 5.5
Protocol: (§2) The D- and L-enantiomers of 2'-CdG were prepared from racemic C-2,6-DAPR by an enzymatic method as described above Secrist et al. (J. Med. Chem. 30:746, 1987). The effectiveness of racemic-2'-CdG and of D-2'-CdG in reducing CMV yields in MRC5 cell monolayer cultures was determined by a plaque assay with the results set forth in tables 6 and 7.

[5] = tested on: MRC5 cell monolayer cultures; assay: Drug cytotoxicity (gross morphology) in MRC5 cell monolayer cultures; assay type: cell-based
Protocol: as §2

[6] = tested on: HBV; assay: HBV DNA production and replication in 2.2.15 cell cultures; assay type: cell-based, Hepatitis B virus (HBV); details: for INTRACELLULAR HBV DNA INTEG. / INTRACELLULAR HBV DNA MONO. / INTRACELLULAR HBV DNA RI: 24 hours following 10th day of treatment; for HBV DNA IN CULTURE MEDIUM DAY 0: day 0 of treatment
Protocol: 2'-CdG was tested at three concentrations (50 ng/ml, 500 ng/ml, and 5 ug/ml) against the HBV-producing, human liver cell line, 2.2.15 (Sells et al., J. Virol. 62:2836, 1989). A racemic (D,L) preparation, as well as the purified D and L isomers were tested. For these analyses compounds were tested in duplicate at all concentrations. Ara-AMP and ddG (2'3'-dideoxyguanosine) were used as HBV inhibitory control compounds. […] The nucleoside analog, ddG was used as an additional control compound since ddG has activity against duck hepatitis B virus in chronically infected Peking ducks (Lee et al., Antimicrob. Agents Chemother. 33:336, 1989) and 2'-CdG is also a deoxyguanosine analog.
2.2.15 cells were seeded in 6 well culture plates and grown to confluence over a 10 day period in medium with 5% FBS. Test compounds were then added daily for a continuous 10 day period in medium with 1% dialyzed FBS. […] Compounds were tested, in duplicate cultures, at 3 concentrations covering a 100-fold range. Culture medium (changed daily during the treatment period) was collected and stored for analysis of extracellular (virion) HBV DNA from days 0, 3, 6, and 10 of the treatment period. This allowed for an analysis of the level of HBV virion production during discrete 24 hour intervals and reduced the potential for the buildup of toxic metabolites derived from the test compounds. Treated cells were lysed following the 10th day of treatment for the analysis of intracellular HBV genomic forms. HBV DNA was analyzed in a quantitative manner for (i) overall levels (both extracellular and intracellular DNA) and (ii) the relative rate of HBV replication (intracellular DNA only).
HBV DNA levels were measured by comparison to known amounts of HBV DNA standards applied to every nitrocellulose filter (gel or slot blot) using an AMBIS Beta Scanner. Standard curves, generated by multiple analyses, were used to correlate CPM measurements with relative levels of target HBV DNA. The levels of HBV DNA in each of three classes of intracellular viral genomic forms were individually quantitated: integrated HBV DNA, episomal monomeric genomes and HBV DNA replication intermediates (RI). Integrated HBV DNA was used to normalize the relative amounts of DNA in each lane because the levels of this class of HBV DNA would be expected to remain constant on a per cell basis. The levels of the monomeric HBV genomes and RI were used as an indicator of the relative level of HBV replication.

[7] = tested on: MRC5 cell monolayer cultures; assay: Drug cytotoxicity (gross morphology) in MRC5 cell monolayer cultures; assay type: cell-based; remark: listed apart in the source

Nc1nc2c(ncn2[C@@H]2C[C@H](CO)[C@@H](O)C2)c(=O)[nH]1 (racemic) [D,L-2'-CdG, (±)-2-amino-1,9-dihydro-[(1α,3β,4α)-3-hydroxy-4(hydroxymethyl)cyclopentyl]-6H-purin-6-one]
Ki [1]: 3 µM | VR [2]: 5.3-7.0 | EC50 [2]: 0.2 to 0.3 mg/L (≈ 0.754 to 1.13 µM) | potency relative to ACV ([2]; more potent than ACV): 5-10 times | VR [3]: 3.7 | EC50 [3]: 2.6 mg/L (≈ 9.8 µM) | CMV Yield ([4]; 0.032 µg/mL): 5.4 log10CCID50/mL | CMV Yield ([4]; 0.1 µg/mL): 5.0 log10CCID50/mL | CMV Yield ([4]; 0.32 µg/mL): 4.5 log10CCID50/mL | CMV Yield ([4]; 1.0 µg/mL): 3.6 log10CCID50/mL | CMV Yield ([4]; 3.2 µg/mL): 1.0 log10CCID50/mL | CMV Yield ([4]; 10 µg/mL): 0 log10CCID50/mL | inhibition at 0.032 µg/mL ([4]; Human betaherpesvirus 5, MRC5, 0.032 µg/mL, read-out: Reduction (%) of CPE by CdG at Time of Harvest): 0% | inhibition at 0.1 µg/mL ([4]; Human betaherpesvirus 5, MRC5, 0.1 µg/mL, read-out: Reduction (%) of CPE by CdG at Time of Harvest): 0% | inhibition at 0.32 µg/mL ([4]; Human betaherpesvirus 5, MRC5, 0.32 µg/mL, read-out: Reduction (%) of CPE by CdG at Time of Harvest): 20% | inhibition at 1 µg/mL ([4]; Human betaherpesvirus 5, MRC5, 1.0 µg/mL, read-out: Reduction (%) of CPE by CdG at Time of Harvest): 95% | inhibition at 3.2 µg/mL ([4]; Human betaherpesvirus 5, MRC5, 3.2 µg/mL, read-out: Reduction (%) of CPE by CdG at Time of Harvest): 100% | inhibition at 10 µg/mL ([4]; Human betaherpesvirus 5, MRC5, 10 µg/mL, read-out: Reduction (%) of CPE by CdG at Time of Harvest): 100% | EC50 ([4]; Human betaherpesvirus 5, MRC5 cells, read-out: MIC50): 0.069 mg/L (≈ 0.26 µM) | Drug Cytotoxicity (Gross Morphology) ([5]; 0.032 µg/mL): 0 | Drug Cytotoxicity (Gross Morphology) ([5]; 0.1 µg/mL): 0 | Drug Cytotoxicity (Gross Morphology) ([5]; 1.0 µg/mL): 0 | Drug Cytotoxicity (Gross Morphology) ([5]; 32 µg/mL): toxic | INTRACELLULAR HBV DNA INTEG. ([6]; 50ng/ml): 1.3 PG/UG CELL DNA and 1.2 PG/UG CELL DNA | INTRACELLULAR HBV DNA MONO. ([6]; 50ng/ml): 2.1 PG/UG CELL DNA and 1.4 PG/UG CELL DNA | INTRACELLULAR HBV DNA RI ([6]; 50ng/ml): 12 PG/UG CELL DNA and 18 PG/UG CELL DNA | HBV DNA IN CULTURE MEDIUM DAY 0 ([6]; 50ng/ml): 120 pg/mL and 95 pg/mL | HBV DNA IN CULTURE MEDIUM DAY 3 ([6]; 50ng/ml): 88 pg/mL and 75 pg/mL | HBV DNA IN CULTURE MEDIUM DAY 6 ([6]; 50ng/ml): 55 pg/mL and 77 pg/mL | HBV DNA IN CULTURE MEDIUM DAY 10 ([6]; 50ng/ml): 11 pg/mL and 6 pg/mL | INTRACELLULAR HBV DNA INTEG. ([6]; 500ng/ml): 1.4 PG/UG CELL DNA and 1.5 PG/UG CELL DNA | INTRACELLULAR HBV DNA MONO. ([6]; 500ng/ml): 1.8 PG/UG CELL DNA and 2.0 PG/UG CELL DNA | HBV DNA IN CULTURE MEDIUM DAY 0 ([6]; 500ng/ml): 89 pg/mL and 90 pg/mL | HBV DNA IN CULTURE MEDIUM DAY 3 ([6]; 500ng/ml): 41 pg/mL and 55 pg/mL | HBV DNA IN CULTURE MEDIUM DAY 10 ([6]; 500ng/ml): 0.1 pg/mL and 0.2 pg/mL | INTRACELLULAR HBV DNA INTEG. ([6]; 5 ug/ml): 1.0 PG/UG CELL DNA and 1.6 PG/UG CELL DNA | INTRACELLULAR HBV DNA MONO. ([6]; 5 ug/ml): 1.9 PG/UG CELL DNA and 1.7 PG/UG CELL DNA | HBV DNA IN CULTURE MEDIUM DAY 0 ([6]; 5 ug/ml): 87 pg/mL and 88 pg/mL | HBV DNA IN CULTURE MEDIUM DAY 3 ([6]; 5 ug/ml): 16 pg/mL and 24 pg/mL | HBV DNA IN CULTURE MEDIUM DAY 6 ([6]; 5 ug/ml): 0.3 pg/mL and 0.4 pg/mL | HBV DNA IN CULTURE MEDIUM DAY 10 ([6]; 5 ug/ml): 0 pg/mL | MIC ([6]; Hepatitis B virus, 240 h, HBV replication in 2.2.15 cells, read-out: minimal inhibitory concentration): ~0.05 mg/L (≈ 0.188 µM) | Drug Cytotoxicity (Gross Morphology) ([7]; 0.32 µg/mL): 0 | Drug Cytotoxicity (Gross Morphology) ([7]; 3.2 µg/mL): v. sl. toxicity | Drug Cytotoxicity (Gross Morphology) ([7]; 10 µg/mL): sl. toxicity

Nc1ncnc2c1ncn2[C@@H]1O[C@H](COP(=O)(O)O)[C@@H](O)[C@@H]1O [ARA-AMP, adenine arabinoside monophosphate, reference compound]
INTRACELLULAR HBV DNA INTEG. ([6]; 300 UG/ML): 1.3 PG/UG CELL DNA and 1.1 PG/UG CELL DNA | INTRACELLULAR HBV DNA MONO. ([6]; 300 UG/ML): 0.1 PG/UG CELL DNA | INTRACELLULAR HBV DNA RI ([6]; 300 UG/ML): 0.2 PG/UG CELL DNA and 0.3 PG/UG CELL DNA | HBV DNA IN CULTURE MEDIUM DAY 0 ([6]; 300 UG/ML): 100 pg/mL and 95 pg/mL | HBV DNA IN CULTURE MEDIUM DAY 3 ([6]; 300 UG/ML): 25 pg/mL and 30 pg/mL | HBV DNA IN CULTURE MEDIUM DAY 6 ([6]; 300 UG/ML): 0 pg/mL | HBV DNA IN CULTURE MEDIUM DAY 10 ([6]; 300 UG/ML): 0 pg/mL

Nc1nc2c(ncn2COCCO)c(=O)[nH]1 [Acyclovir, acyloguanosine, reference compound]
VR [2]: 5.7-6.5 | EC50 [2]: 1.5 to 2.9 mg/L (≈ 6.66 to 12.9 µM) | VR [3]: 4.5 | EC50 [3]: 5.3 mg/L (≈ 23.5 µM)
